The values below come from article PMC2222952, “Structural and Biochemical Bases for the Inhibition of Autophagy and Apoptosis by Viral BCL-2 of Murine γ-Herpesvirus 68” (PLoS Pathogens, 2008).

A word on the Kd: it is the free concentration of one partner at which half of the binding sites on the other are occupied at equilibrium, for simple one-to-one binding.

For assay [1], the target named is Beclin1 peptide (UniProt Q14457). The conditions noted are these: cited from earlier work.
Assay [2] addresses T1, M11, viral BCL-2 of murine γ-herpesvirus 68 (residues 1–137) (Murid herpesvirus 4, UniProt P89884).
T1 construct: Each of the DNA fragments coding for M11 (residues 1–137); His6 tag; This is inferred: pPROEX HTa encodes an N-terminal His tag with a TEV site, and purification was on Ni-NTA; (N); made in house; host or cells: E. coli BL21(DE3)
T1 sequence (P89884 whole entry, looked up): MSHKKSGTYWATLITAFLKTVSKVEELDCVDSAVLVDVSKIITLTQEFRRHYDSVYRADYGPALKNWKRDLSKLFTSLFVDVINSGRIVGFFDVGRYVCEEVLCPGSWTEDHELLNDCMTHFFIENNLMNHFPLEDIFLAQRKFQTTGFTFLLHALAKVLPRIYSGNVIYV
The assay is classed as binding. The note with it: 25 °C, 20 mM Tris-HCl (pH 7.4), 100 mM NaCl. From the text: “HT”, “CCD” and “ECD” denote hydrophobic tail, coiled-coil domain and evolutionarily conserved domain, respectively. […] The surface coloring scheme is as follows: olive for Val, Leu, Ile, Phe, Trp, Met, and Ala; yellow for Cys, Gly, Tyr, and Pro; gray for other amino acids. […] Only the BH3-binding groove region of M11 is shown for clarity. […] The arrows indicate the movements of the Cα atoms of Asp59 and Tyr60 in M11. (C) ITC analysis.
Figure 5 Analyses of the Interactions between M11 or BCL-2 Proteins and BAX/BAK (A) Cell-based binding assay. 293T cells were transfected with HA-tagged BAK or Flag-tagged BAX together with the indicated GST-tagged prosurvival BCL-2 proteins. Whole cell lysates were used for immunoprecipitation with anti-GST followed by immunoblotting with anti-HA or anti-Flag. […] (B) ITC analyses of the interactions of M11 with the BH3 peptides of BAX or BAK. The ITC analysis was carried out by titrating 0.1 mM of the indicated peptides into 5 μM of M11. The ITC run for the titration of the 26-mer BAK peptide is shown. […] NIH3T3 cells were transfected with HA-tagged M11 and whole cell lysates were used for immunoprecipitation with control rabbit serum or anti-BAK followed by immunoblotting with anti-HA.
A plasmid containing the DNA segment coding for human BCL-2 (residues 1–50 and 92–207) was also constructed. The resulting protein lacks the internal long loop (residues 51–91) and contains a replacement of residues 35–50 with residues 33–48 of BCL-XL, which was necessary for the solubility of the protein as reported earlier. Each construct was introduced into the E. coli BL21(DE3) strain. The proteins were expressed at 21 °C overnight and purified using a Ni-NTA column and a Hitrap Q anion exchange column.
All measurements were carried out at 25 °C on a MicroCalorimetry System (MicroCal). Protein samples were dialyzed against the solution containing 20 mM Tris-HCl (pH 7.4) and 100 mM NaCl. The samples were degassed for 20 min and centrifuged to remove any residuals prior to the measurements. Dilution enthalpies were measured in separate experiments (titrant into buffer) and subtracted from the enthalpies of the binding between the protein and the titrant. Data were analyzed using the Origin software (OriginLab Corp.).

The test system of assay [3] is BCL-2–Beclin1(101–267) complex. Description: Displacement test on BCL-2–Beclin1(101–267) complex. The assay is classed as binding, human. The conditions noted are these: BCL-2 mixed with Beclin1(101–267) at 1:4 molar ratio, 1 h; BH3 peptide added; gel. From the text:
(§1) A newly identified function of BCL-2 is the down regulation of autophagy through their inhibitory binding to Beclin1, which appears critical for cellular homeostasis. […] The weak interaction explains the recent observation that endogenous BH3-only proteins induce autophagy by displacing Beclin1 from BCL-2/BCL-XL [31]. Like the cellular kin, two viral BCL-2 proteins from γHV68 and KSHV are known to inhibit autophagy in addition to suppressing apoptotic death of cells. In this study, we provided the structural basis for the inhibitory interaction of M11 with Beclin1, which is reminiscent of the canonical interaction between a BH3 peptide and a BH3-binding groove. […] As a confirmatory experiment, we carried out a displacement test, where a complex between two proteins was challenged by another protein. […] Conceivably, M11 could negate the proautophagic role of the BH3-only proteins under apoptosis-inducing conditions in contrast with BCL-2/BCL-XL.
(§2) Each of the DNA fragments coding for M11 (residues 1–137), mouse BCL-XL (residues 1–44 and 85–196) or mouse Beclin1 (residues 101–267) was cloned into pPROEX HTa. A plasmid containing the DNA segment coding for human BCL-2 (residues 1–50 and 92–207) was also constructed. […]

For assay [4], the system named is BCL-XL–Beclin1(101–267) complex. Description: Displacement test on BCL-XL–Beclin1(101–267) complex. The assay is classed as binding, mouse. The note with it: BCL-XL mixed with Beclin1(101–267) at 1:4 molar ratio, 1 h; BH3 peptide added; gel.
Source text: as §1, §2

Assay [5] has as its system BCL-2 ∆C22. Also noted: method as in earlier work. The note with it: Table S1; relative values, not absolute KD; peptides of Chen et al. are the same as or 1 to 2 residues shorter than those of this paper; read-out: binding affinity for BCL-2 ∆C22 (relative value, competitive binding assay); cited from earlier work.
Assay [6] relates to BCL-XL ∆C24. The note with it: Table S1; relative values, not absolute KD; peptides of Chen et al. are the same as or 1 to 2 residues shorter than those of this paper; read-out: binding affinity for BCL-XL ∆C24 (relative value, competitive binding assay); cited from earlier work.
The subject of assay [7] is BCL-w ∆C29. The note with it: Table S1; relative values, not absolute KD; peptides of Chen et al. are the same as or 1 to 2 residues shorter than those of this paper; read-out: binding affinity for BCL-w ∆C29 (relative value, competitive binding assay); cited from earlier work.
The test system of assay [8] is MCL ∆N151 ∆C23. Also noted: method as in earlier work. The conditions noted are these: Table S1; relative values, not absolute KD; peptides of Chen et al. are the same as or 1 to 2 residues shorter than those of this paper; read-out: binding affinity for MCL ∆N151 ∆C23 (relative value, competitive binding assay); cited from earlier work.
Assay [9] deals with A1 ∆C20. Also noted: method as in earlier work. The conditions noted are these: Table S1; relative values, not absolute KD; peptides of Chen et al. are the same as or 1 to 2 residues shorter than those of this paper; read-out: binding affinity for A1 ∆C20 (relative value, competitive binding assay); cited from earlier work.
Assay [10] concerns M11–Beclin1(101–267) complex. Description: Displacement test on M11–Beclin1(101–267) complex. The assay is classed as binding, murine γ-herpesvirus 68. The note with it: M11 mixed with Beclin1(101–267) at 1:1 molar ratio, 1 h; BH3 peptide added, additional 1 h; gel.
Source text: as §1
The complexes between each of the BH3 peptides and BCL-2 or BCL-XL appeared. The numbers above the gels indicate the final concentrations of the indicated proteins and peptides. The schematic drawings are shown to help to understand the experimental scheme and results. (1.8 MB TIF) Click here for additional data file.

In assay [11] the target is T2, M11 (residues 1–137), purified alone (murine γ-herpesvirus 68, UniProt P89884 1-137).
T2 chain: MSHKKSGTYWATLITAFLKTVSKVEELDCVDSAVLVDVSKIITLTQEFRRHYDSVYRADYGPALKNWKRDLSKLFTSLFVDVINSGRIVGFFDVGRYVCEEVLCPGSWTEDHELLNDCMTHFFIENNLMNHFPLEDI
Briefly: ITC. (Isothermal titration calorimetry measures the heat released or taken up as one component is titrated into another.)

Assay [12] deals with T3, M11 (residues 1–137), coexpressed with Beclin1(101–150) (murine γ-herpesvirus 68, UniProt P89884 1-137).
T3 sequence: T2 chain
Description: crystal structure. The conditions noted are these: both partners purified.

Assay [13] concerns the target T4, mouse BAD (residues 43–204) (mouse, UniProt Q61337 43-204).
T4 sequence (looked up): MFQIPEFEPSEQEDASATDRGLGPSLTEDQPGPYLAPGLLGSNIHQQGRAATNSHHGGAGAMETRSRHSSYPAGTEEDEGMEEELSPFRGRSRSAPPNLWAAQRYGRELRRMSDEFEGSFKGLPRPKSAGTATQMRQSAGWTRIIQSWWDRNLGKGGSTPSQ
Briefly: crystal structure; BCL-XL (1–44, 85–196) coexpressed and co-purified with BAD(43–204); hanging drop, 4 °C, 10% PEG 1000, 10% PEG 8000; 2.3 Å. The conditions noted are these: both partners purified.

“Also recorded” adds a separate entry of the source. Ends that are not written are not given here.

In the case of BCL-XL (from UniProt Q07817), the Kd in [1] was 1100 nM.
In the case of “BAD: synthetic 27-mer BH3 peptide, residues 137–163 of BAD (TATQMRQSSSWTRVFQSWWDRNLGRGS; BH3 peptide; UniProt Q92934 137-163, looked up, fragment)”, in assay [2], the “interaction with M11 in ITC, in words (KD could not be deduced)” value was “did not interact or poorly interacted”. The “displacement of Beclin1(101–267) bound to BCL-2 by BH3 peptide” value in assay [3] is recorded as “easily disrupted”. Also, in [4], the “displacement of Beclin1(101–267) bound to BCL-XL by BH3 peptide” value was “easily disrupted”. For the same molecule, the IC50 in [5] is 16 nM; in [6], 5.3 nM; in [7] it was 30 nM; in [8] it was above 100000 nM; in [9], 15000 nM.
With EEIIHNIARHLAQIGDEMDHNIQPT [BID], in [10], the “displacement of Beclin1(101–267) bound to M11 by BH3 peptide” value is reported as “remained intact; also recorded: failed to displace”. The IC50 in [5] was 6800 nM; in [6] it was 82 nM; in [7] it was 40 nM; in assay [9], 9.3 nM.
On to `CC[C@H](C)[C@H](NC(=O)[C@H](CCCCN)NC(=O)[C@H](CCCNC(=N)N)NC(=O)[C@H](CC(C)C)NC(=O)[C@H](CCC(N)=O)NC(=O)[C@H](C)NC(=O)[C@H](C)NC(=O)[C@H](Cc1ccccc1)NC(=O)[C@H](CCC(=O)O)NC(=O)[C@@H]1CCCN1C(=O)[C@@H]1CCCN1C(=O)[C@H](CC(C)C)NC(=O)[C@H](CCC(=O)O)NC(=O)[C@H](C)NC(=O)[C@@H](N)CCCNC(=N)N)C(=O)NCC(=O)N[C@@H](CC(=O)O)C(=O)N[C@@H](CCCCN)C(=O)N[C@H](C(=O)N[C@@H](Cc1ccc(O)cc1)C(=O)N[C@@H](CS)C(=O)N[C@H](C(=O)N[C@@H](Cc1c[nH]c2ccccc12)C(=O)N[C@@H](CO)C(=O)N[C@@H](C)C(=O)N1CCC[C@H]1C(=O)O)[C@@H](C)O)C(C)C` [Noxa], for which, in assay [10], the “displacement of Beclin1(101–267) bound to M11 by BH3 peptide” value is reported as “remained intact; also recorded: failed to displace”. Moreover, the IC50 in assay [5] is above 100000 nM; in assay [6], above 100000 nM; in [7], above 100000 nM; in assay [9] it was 180 nM.
In the case of HRAEVQIARKLQCIADQFHRLHTQ [BMF BH3 peptide, 24-mer (residues 214–237 of BMF)], the Kd in assay [11] was 300 nM.

B1: Beclin1(101–150) (domain or fragment, mouse, UniProt O88597 101-150, looked up)
chain: ASDGGTMENLSRRLKVTGDLFDIMSGQTDVDHPLCEECTDTLLDQLDTQL
notes: also called mouse Beclin1 fragment consisting of residues 101–150; 50-residue Beclin1 fragment
In the case of B1, the binding result in assay [12] was “binds”.

B2: mouse BCL-XL (residues 1–44 and 85–196) (domain or fragment, UniProt Q64373-1 1-196, looked up)
chain: MSQSNRELVVDFLSYKLSQKGYSWSQFSDVEENRTEAPEETEAEAVKQALREAGDEFELRYRRAFSDLTSQLHITPGTAYQSFEQVVNELFRDGVNWGRIVAFFSFGGALCVESVDKEMQVLVSRIASWMATYLNDHLEPWIQENGGWDTFVDLYG
notes: also called BCL-XL lacking the internal long loop and the C-terminal tail region
Regarding B2, in assay [13], the binding result is given as “binds”.
